Test results: US20150218514A1, “PROMOTER OF DIFFERENTIATION FROM HEPATIC PROGENITOR CELL INTO HEPATIC CELL, AND USE THEREOF” (NATIONAL CANCER CENTER, priority 2012, published 2015)

Legend:
[1] = non-patent document 12; cited from earlier work
HepG2 cells [2] = test: PAS staining of HepG2 cells (glycogen storage capacity); assay type: cell-based, human; settings: 2.5 μM; culture for 14 days; compared to control without inhibitor
Protocol: (§1) HepG2 cells (ATCC) were plated on a 35 mm cell culture dish at 7×10^5 cells, and cultured in DMEM (Invitrogen Corporation) added with 100 IU/mL penicillin-100 μg/mL streptomycin solution (Invitrogen Corporation), 10% fetal bovine serum (Thermo Fisher Scientific K.K.), and a substance that inhibits DNA methylation (5-aza-2′-deoxycytidine: 5-aza (decitabine): 2.5 μM). The medium was exchanged every day.

[3] = tested on: Hepatoblastoma HepG2 cells; test: Morphology of HepG2 cells cultured with substance that inhibits DNA methylation caused by Dnmt-1; assay type: cell-based, human; settings: 2.5 μM; day 14 of culture
Protocol: as §1, with “Hepatoblastoma HepG2” for “HepG2”, “(American Type Culture Collection: ATCC)” for “(ATCC)”

HepG2 cells [4] = settings: HepG2 cells treated for 2 days; non-patent document 8; cited from earlier work
[5] = tested on: Mouse hepatic progenitor cells; test: Expression level of hepatocyte markers after differentiation induction of mouse hepatic progenitor cells (real-time PCR); assay type: cell-based; settings: for expression level of Cyp17a1 / expression level of G6pc / expression level of Tat / expression level of albumin: 100 nM siRNA introduced on day 2, day 6 of culture, compared to control siRNA (siCtrl)
Protocol: To a basal medium for hepatocyte were added 5 μg/mL of insulin (Sigma-Aldrich Corporation), 25 ng/mL of epidermal growth factor (EGF) (Sigma-Aldrich Corporation), 25 ng/mL of hepatocyte growth factor (HGF) (Peprotech), 12.5 ng/mL of oncostatin M (Sigma-Aldrich Corporation), 5×10^−7M hydrocortisone 21-hemisuccinate sodium salt (Sigma-Aldrich Corporation) and 10^−7 M dexamethasone (Sigma-Aldrich Corporation) to prepare the medium.
The hepatic parenchymal cells were diluted with HEPES buffer added with 2% fetal bovine serum to prepare a 10^7 cells/100 μL cell suspension, which was transferred into a 5 mL round-bottom tube. A mouse FcR blocking antibody in EasySep Mouse Biotin Positive Selection Kit ([…] Technologies Inc) was added at 1 μL per 10^7 cells, and the mixture was admixed by tapping the tube. Biotin-labeled anti-E-cadherin antibody (eBioscience) was added at 2-4 μL per 10^7 cells, and the mixture was left standing at room temperature for 15 min while stirring the tube every 2-3 minutes. Biotin Selection Cocktail in EasySep Mouse Biotin Positive Selection Kit was added at 10 μL per 10^7 cells, and the mixture was left standing at room temperature for 15 min with occasional stirring. Magnetic particles in EasySep Mouse Biotin Positive Selection Kit were added at 5 μL per 10^7 cells, and the mixture was stirred and left standing at room temperature for 10 min. To the cell suspension was added a medium for cell isolation, and the volume was adjusted to 2.5 mL. The mixture was suspended with a 2 mL plastic pipette, and the tube was placed in an exclusive magnet ([…] Technologies Inc.) and left standing at room temperature for 10 min. The exclusive magnet containing the tube was reversed for 3 sec, and a non-hepatic progenitor cell fraction was removed (purification operation: first time). The tube was taken out from the exclusive magnet, 2.5 mL of the medium for cell isolation was added, and a purification operation was performed again (purification operation: second time). Furthermore, 2.5 mL of the medium for cell isolation was added, and a purification operation was performed for the third time (purification operation: third time). The cells remaining in the tube are the hepatic progenitor cells.
Total RNA was extracted from cultured cells, liver cancer cell lines, and mouse and human normal hepatic tissues by using miRNeasy Mini Kit (QUIAGEN). The total RNA was quantified by NanoDrop 1000 spectrophotometer (Thermo Fisher Scientific K.K.). The hepatic tissues recovered from mouse were placed in ice-cooled phosphate buffer and disrupted before extraction of RNA. Red blood cells were lysed in Red Blood Cell Lysis Buffer (Sigma-Aldrich Corporation).
(§2) RNA was quantified by the real-time PCR method using 7300 real-time PCR system (Applied Biosystems) and TaqMan MicroRNA Assays (Applied Biosystems). The miRNA expression was standardized at 6NU6B level. For quantification of messenger RNA, total RNA sample was treated with DNase (TURBO DNA-free kit: Ambion Inc.), and cDNA was synthesized from 1 μg of total RNA by using reverse transcriptase (SuperScript III Reverse Transcriptase: Ambion Inc.). For quantification, SYBR Green (PlatinumSYBR Green quantitative PCR SuperMix UDG: Invitrogen Corporation) was used. The reaction for real-time PCR was performed at 95° C., 2 min, 40 cycles (95° C. for 15 sec, 60° C. for 30 sec). The cDNA expression level was standardized by GAPDH.

Dnmt-1 = Dnmt-1 expression level after differentiation induction of mouse hepatic progenitor cells (real-time PCR); assay type: cell-based; settings: 100 nM siRNA; day 6 of culture; compared to control siRNA (siCtrl)
Protocol: as §2, with “GAPDH. […]” for “GAPDH.”
Mouse hepatic progenitor cells were plated at 4×10^4 cells/cm^2 in a 35 mm cell culture dish coated with type I collagen, […], after confluence (after day 4 of culture), the cells were cultured in the medium for hepatic progenitor cells free of epidermal growth factor (EGF) and fetal bovine serum. […] Total RNA was extracted, and Dnmt-1 was quantified by the real-time PCR method. […]

Nc1ncn([C@H]2C[C@H](O)[C@@H](CO)O2)c(=O)n1 [5-aza-2′-deoxycytidine]
apoptosis [1]: induce apoptosis | cytotoxicity [1]: high cytotoxicity | glycogen storage capacity (PAS staining) (HepG2 cells [2]): high glycogen storage capacity | cell morphology [3]: morphology specific to mature hepatocyte (multiple nuclei, clear cell boundary) | mRNA level of CYP gene (HepG2 cells [4]): increases

O=C(O)C(Cc1c[nH]c2ccccc12)N1C(=O)c2ccccc2C1=O (centres unmarked) [RG108]
expression of albumin ([5]; RG108 20 or 100 μM in medium from day 2, day 7 of culture, compared to control): high level | effect of promoting differentiation into a hepatocyte ([5]; among the substances that inhibit DNA methylation): high effect

siDnmt-1a: double stranded RNA, sense strand SEQ ID NO: 9 and antisense strand SEQ ID NO: 10; siRNA that suppresses expression of Dnmt-1 (sense GGUAGAGAGUUACGACGAATT; antisense UUCGUCGUAACUCUCUACCTG; chemistry not given here)
expression level of Cyp17a1 [5]: high expression levels | expression level of G6pc [5]: high expression levels | expression level of Tat [5]: high expression levels | expression level of albumin [5]: high expression levels | expression of Dnmt-1 (Dnmt-1): suppressed

siDnmt-1b: double stranded RNA, sense strand SEQ ID NO: 11 and antisense strand SEQ ID NO: 12; siRNA that suppresses expression of Dnmt-1 (sense CAACGGAUCCUAUCACACUTT; antisense AGUGUGAUAGGAUCCGUUGTA; chemistry not given here)
expression level of Cyp17a1 [5]: high expression levels | expression level of G6pc [5]: high expression levels | expression level of Tat [5]: high expression levels | expression level of albumin [5]: high expression levels | expression of Dnmt-1 (Dnmt-1): suppressed
